Measured values from article PMC10226132, “First-in-Class Selective Inhibitors of the Lysine Acetyltransferase KAT8” (Journal of Medicinal Chemistry, 2023).

How the values were obtained:
Type in all cases: biochemical
KAT8 = molecular target: T1, KAT8 (Homo sapiens, UniProt Q9H7Z6); experiment: Radioactive KAT8 inhibition assay; settings: read-out: IC50 KAT8 (5 nM); enzyme 5 nM; 2-fold serial dilution from 200 μM; NI = no inhibition at 200 μM; mean ± SD of three independent experiments
T1 construct: using the previously purified KAT8 (173–458, 5 nM); 6xHis tag with TEV protease cleavage site (N, cleaved yes); made in house; host or cells: E. coli BL21(DE3)
T1 sequence (Q9H7Z6 173-458): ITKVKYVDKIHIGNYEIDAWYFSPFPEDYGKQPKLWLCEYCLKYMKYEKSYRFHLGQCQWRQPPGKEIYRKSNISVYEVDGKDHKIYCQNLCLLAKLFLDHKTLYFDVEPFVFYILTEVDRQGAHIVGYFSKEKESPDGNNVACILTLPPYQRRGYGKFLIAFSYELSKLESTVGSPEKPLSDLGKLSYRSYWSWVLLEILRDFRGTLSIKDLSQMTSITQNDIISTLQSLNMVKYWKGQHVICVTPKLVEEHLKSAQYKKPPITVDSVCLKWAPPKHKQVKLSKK
Procedure, shortened: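 Purified KAT8 preincubated 20 min at rt with inhibitor (2-fold dilutions from 200 μM, 1% DMSO), then [3H]Ac-CoA and biotinylated peptide added for 4 h at rt. Product captured on streptavidin scintillant plates and counted. IC50 by nonlinear regression of % inhibition, biological triplicates.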

KAT2B = molecular target: T2, KAT2B (Homo sapiens, UniProt Q92831); experiment: HotSpot KAT assay, KAT2B; settings: enzyme 25 nM; NI = no inhibition at 200 μM; mean ± SD of three independent experiments
T2 construct: KAT2B (aa 492–658, 25 nM); purchased Reaction Biology Corporation
T2 sequence (Q92831 492-658): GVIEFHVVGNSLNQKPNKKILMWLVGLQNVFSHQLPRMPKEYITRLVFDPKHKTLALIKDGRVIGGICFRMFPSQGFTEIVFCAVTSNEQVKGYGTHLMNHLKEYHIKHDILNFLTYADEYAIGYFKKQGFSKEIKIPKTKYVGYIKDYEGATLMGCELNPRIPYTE
Procedure, shortened: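 Radiometric assay: recombinant human catalytic domains (KAT2B aa 492–658, 25 nM; KAT6A aa 488–778, 10 nM; KAT6B aa 657–1069, 10 nM) or full-length KAT7 (25 nM), with H3 peptide (H4 for KAT6B, 2.5 μM) and [3H]acetyl-CoA, pH 8.0, 1 h, 30 °C. Compounds 2-fold from 200 μM; scintillation counting, triplicates, IC50 by nonlinear regression.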

KAT6A = molecular target: T3, KAT6A (Homo sapiens, UniProt Q92794); experiment: HotSpot KAT assay, KAT6A; settings: for inhibition at 200 µM: read-out: % inhibition at 200 μM KAT6A (10 nM), NI = no inhibition
T3 construct: KAT6A (aa 488–778, 10 nM); purchased Reaction Biology Corporation
T3 sequence (Q92794 488-778): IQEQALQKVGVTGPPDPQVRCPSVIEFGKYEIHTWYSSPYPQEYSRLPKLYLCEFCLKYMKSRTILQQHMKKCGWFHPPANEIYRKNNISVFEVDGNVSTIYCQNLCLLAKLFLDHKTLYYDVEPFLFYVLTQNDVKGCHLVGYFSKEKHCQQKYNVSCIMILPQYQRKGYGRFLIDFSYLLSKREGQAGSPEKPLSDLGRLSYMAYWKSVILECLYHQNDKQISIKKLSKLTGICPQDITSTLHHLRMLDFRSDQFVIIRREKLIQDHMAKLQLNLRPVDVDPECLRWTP
Procedure: (§1) The effects of the compounds on other KATs were determined using the HotSpot KAT assay (Reaction Biology Corporation, Malvern, PA, USA) according to the supplier’s procedure. The recombinant catalytic domains of human KAT2A (aa 323–837, 15 nM), KAT2B (aa 492–658, 25 nM), KAT3B (aa 1284–1672, 1 nM), KAT6A (aa 488–778, 10 nM), KAT6B (aa 657–1069, 10 nM), and full length human KAT5 (25 nM) and KAT7 (25 nM) were used. Each enzyme was incubated with the relevant histone peptide [H3 peptide for KAT2A, KAT2B, KAT3B, KAT6A, and KAT7 (2.5–5 μM, depending on the KAT isoform); H2A peptide for KAT5 (1.25 μM); H4 peptide for KAT6B (2.5 μM)] as a substrate and radio-isotope-labeled [^3H]Acetyl-CoA (0.2–1.5 μM, depending on the KAT isoform) as an acetyl donor in the assay buffer [50 mM Tris–HCl (pH 8.0), 50 mM NaCl, 0.1 mM EDTA, 1 mM DTT, 0.1 mM PMSF, 1% DMSO] for 1 h at 30 °C in the presence or absence of various compounds (1% DMSO final) titrated in a 2-fold serial dilution starting at 200 μM. Histone peptide acetylation was assessed by liquid scintillation counting using a Tri-Carb 2800TR Liquid Scintillation Analyzer (Perkin Elmer). Experiments were performed in biological triplicates. Signal reduction compared to control was plotted (as inhibition percentage) as a function of compound concentration. In cases in which an IC50 was calculated, the values were fitted by nonlinear regression (GraphPad Prism 8.0).

KAT6B = molecular target: T4, KAT6B (Homo sapiens, UniProt Q8WYB5); experiment: HotSpot KAT assay, KAT6B; settings: for inhibition at 200 µM: read-out: % inhibition at 200 μM KAT6B (10 nM), NI = no inhibition
T4 construct: KAT6B (aa 657–1069, 10 nM); purchased Reaction Biology Corporation
T4 sequence (Q8WYB5 657-1069): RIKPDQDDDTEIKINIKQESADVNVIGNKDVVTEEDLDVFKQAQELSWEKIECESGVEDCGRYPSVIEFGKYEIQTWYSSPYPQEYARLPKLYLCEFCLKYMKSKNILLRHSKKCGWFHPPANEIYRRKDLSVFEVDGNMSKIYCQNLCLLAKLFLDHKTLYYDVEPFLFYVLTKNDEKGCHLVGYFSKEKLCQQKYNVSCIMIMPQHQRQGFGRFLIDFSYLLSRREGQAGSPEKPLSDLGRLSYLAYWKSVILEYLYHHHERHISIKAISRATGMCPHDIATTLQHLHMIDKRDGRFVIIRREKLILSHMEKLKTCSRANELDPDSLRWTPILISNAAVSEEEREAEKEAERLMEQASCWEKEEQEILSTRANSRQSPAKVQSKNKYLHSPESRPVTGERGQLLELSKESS
Procedure: as §1

KAT7 = molecular target: T5, KAT7 (Homo sapiens, UniProt O95251); experiment: HotSpot KAT assay, KAT7; settings: for inhibition at 200 µM: read-out: % inhibition at 200 μM KAT7 (25 nM), NI = no inhibition
T5 construct: full length human KAT5 (25 nM) and KAT7 (25 nM) were used; purchased Reaction Biology Corporation
T5 sequence (O95251 whole entry): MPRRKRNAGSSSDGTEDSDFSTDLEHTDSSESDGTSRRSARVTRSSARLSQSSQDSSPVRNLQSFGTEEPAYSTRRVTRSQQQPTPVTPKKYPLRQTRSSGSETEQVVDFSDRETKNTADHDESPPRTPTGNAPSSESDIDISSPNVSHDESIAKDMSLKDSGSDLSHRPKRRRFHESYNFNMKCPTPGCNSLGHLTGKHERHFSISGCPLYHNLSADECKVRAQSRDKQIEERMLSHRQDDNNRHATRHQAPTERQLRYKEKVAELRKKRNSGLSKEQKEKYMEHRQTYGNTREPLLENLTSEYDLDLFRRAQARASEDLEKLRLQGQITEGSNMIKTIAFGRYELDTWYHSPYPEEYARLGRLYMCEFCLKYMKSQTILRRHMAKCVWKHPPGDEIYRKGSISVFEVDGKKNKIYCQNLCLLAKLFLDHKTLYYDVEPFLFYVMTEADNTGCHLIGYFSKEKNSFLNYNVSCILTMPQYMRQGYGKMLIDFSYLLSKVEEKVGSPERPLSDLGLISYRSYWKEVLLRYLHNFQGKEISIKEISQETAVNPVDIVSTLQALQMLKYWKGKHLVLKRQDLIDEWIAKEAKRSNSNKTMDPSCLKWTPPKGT
Procedure: as §1

KDAC2 = KDAC2 (Homo sapiens, UniProt Q92769); experiment: KDAC inhibition assay, KDAC2; settings: mean of three technical replicates
KDAC2, sequence (Q92769 whole entry, canonical isoform): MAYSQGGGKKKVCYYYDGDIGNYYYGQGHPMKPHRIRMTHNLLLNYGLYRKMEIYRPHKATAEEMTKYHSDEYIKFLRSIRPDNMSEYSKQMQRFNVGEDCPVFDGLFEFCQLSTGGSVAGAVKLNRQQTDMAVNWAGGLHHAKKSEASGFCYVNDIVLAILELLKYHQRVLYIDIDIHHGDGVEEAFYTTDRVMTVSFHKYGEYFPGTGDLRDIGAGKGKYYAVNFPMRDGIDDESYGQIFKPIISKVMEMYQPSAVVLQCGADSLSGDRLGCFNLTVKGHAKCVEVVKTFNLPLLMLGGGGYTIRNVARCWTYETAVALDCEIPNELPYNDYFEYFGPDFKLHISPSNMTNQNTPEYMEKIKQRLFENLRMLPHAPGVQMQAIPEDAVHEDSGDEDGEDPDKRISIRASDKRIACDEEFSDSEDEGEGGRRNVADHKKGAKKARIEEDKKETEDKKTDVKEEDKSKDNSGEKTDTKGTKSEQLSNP
Procedure: (§2) KDAC1, 2, 3 6, and 8 inhibition assays were performed as described previously.[52] Briefly, the relevant human recombinant KDAC was diluted in an assay buffer with the following composition: 150 mM NaCl, 25 mM Tris–HCl (pH 8.0), 2.7 mM KCl, and 1 mM MgCl2; BSA (0.1 mg/mL) was also added in the case of KDAC1. Forty microliters of this solution were added to 10 μL of each inhibitor ([…]) and 50 μL of KDAC Assay substrate (Boc-Lys-(Ac)-AMC, 7–100 μM final concentration, depending on the KDAC isoform), and the resulting solution was mixed. […] After thorough mixing of the resulting solution, the plate was covered and incubated at 37 °C for 25 min and the fluorescence (λemission = 460 nm; λexcitation = 390 nm) was measured on a EnSight Multimode Plate Reader (Perkin Elmer). The shown values are average of three technical replicates ± SD.

KDAC3 = KDAC3 (Homo sapiens, UniProt O15379); experiment: KDAC inhibition assay, KDAC3; settings: mean of three technical replicates
KDAC3, sequence (O15379 whole entry): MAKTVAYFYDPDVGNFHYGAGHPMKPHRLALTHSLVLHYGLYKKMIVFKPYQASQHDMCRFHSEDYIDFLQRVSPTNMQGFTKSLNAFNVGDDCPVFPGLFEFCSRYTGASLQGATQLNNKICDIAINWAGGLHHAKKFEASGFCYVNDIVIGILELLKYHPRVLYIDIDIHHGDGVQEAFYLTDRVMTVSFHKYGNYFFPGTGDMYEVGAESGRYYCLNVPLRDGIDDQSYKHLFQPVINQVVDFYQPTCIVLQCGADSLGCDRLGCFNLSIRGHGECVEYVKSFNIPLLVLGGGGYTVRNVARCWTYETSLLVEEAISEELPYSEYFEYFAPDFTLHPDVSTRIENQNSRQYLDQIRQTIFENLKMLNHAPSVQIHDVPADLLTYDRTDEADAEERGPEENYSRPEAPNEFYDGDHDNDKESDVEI
KDAC3, sequence (Q9Y618 395-489 partner limits assumed): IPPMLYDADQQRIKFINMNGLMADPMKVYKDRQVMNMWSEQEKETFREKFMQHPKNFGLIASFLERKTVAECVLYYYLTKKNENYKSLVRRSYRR
Procedure: as §2

Structure (SMILES)	IC50 (KAT8) [µM]	IC50 (KAT2B) [µM]	IC50 KAT2B (25 nM) (KAT2B)	inhibition at 200 µM (KAT6A) [%]	inhibition at 200 µM (KAT6B) [%]	inhibition at 200 µM (KAT7) [%]	inhibition at 50 µM (KDAC2) [%]	inhibition at 100 µM (KDAC2) [%]	inhibition at 50 µM (KDAC3) [%]	inhibition at 100 µM (KDAC3) [%]	IC50 (KAT6A; read-out: IC50 KAT6A (10 nM), control compound) [µM]	IC50 (KAT6B; read-out: IC50 KAT6B (10 nM), control compound) [µM]	IC50 (KAT7; control compound, read-out: IC50 KAT7 (25 nM)) [µM]
CC1=NN(c2ccc(C(=O)O)cc2)C(=O)/C1=C\c1ccc[nH]1 [Compound 19, (Z)-4-(4-((1H-Pyrrol-2-yl)methylene)-3-methyl-5-oxo-4,5-dihydro-1H-pyrazol-1-yl)benzoic Acid]	12.1 ± 0.6	> 200	no inhibition at 200 μM	0	4.8 ± 1.6	0	0.01	0.7	0.5	1.1	–	–	–
O=C(O)c1ccc(N2N=C(c3ccccc3)/C(=C/c3ccc[nH]3)C2=O)cc1 [Compound 34, (Z)-4-(4-((1H-Pyrrol-2-yl)methylene)-5-oxo-3-phenyl-4,5-dihydro-1H-pyrazol-1-yl)benzoic Acid]	8.1 ± 0.5	> 200	–	20.9 ± 0.4	19.6 ± 1	16.9 ± 0.7	0.03	0.4	0.02	0.6	–	–	–
CC1=NN(c2ccc(C(=O)O)cc2)C(=O)/C1=C\c1ccc(-c2cc(C)c(C)cc2[N+](=O)[O-])o1 [VII (C646), reference compound]	> 200	> 200	–	–	–	–	75.4	87.6	54.5	86.2	15	5.6	8
